Measured values: the supplement of paper PMC11208160

assay: recombinant barcode read abundance after kanamycin selection (control-corrected) (log10(CPM+1)); higher = more efficient recombination; sequences stand for … in AGTGCAGAGAAAATCGGCCAGTTTTCTCTGCCTGCAGTCCGCATGCCGT…AGATTTATGCAGCGGACTGCCTTTCTCCCAAAGTGATAAACCGGACAGTATCATGGACCGGTTTTCCCGGTAATCCGTATTTGCAAGGTTGGTTTCACT; site = the 11-nt target
Method in brief: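 Reported as log10(CPM+1), each value stands for recombination efficiency. That efficiency is the averaged, control-corrected counts per million of barcodes found at recombinant junctions. Cells from a pooled E. coli library pairing targets with IS621 bridge RNA target-binding loops were plated twice on chloramphenicol/ampicillin LB agar (control) and twice on chloramphenicol/ampicillin/kanamycin with 0.1 mM IPTG.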
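Also: IS621 recombinase and bridge RNA in Escherichia coli cells.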

| Sequence | recombinant barcode read abundance (log10) |
| --- | --- |
| GCCGAGTCTTGGGTTCTAACCTGTTGCTA (site GCCGAGTCTAA) | 0.0891 |
| GCCGAGTCTTGGGTTCTAACCTGTTGCTA (site GCCGAGTCTCA) | 0.357 |
| GCCGAGTCTTGGGTTCTAACCTGTTGCTA (site GCCGAGTCTGA) | 0.0866 |
| GCCGAGTCTTGGGTTCTAACCTGTTGCTA (site GCCGAGTCTTA) | 0.411 |
| GCCGATACTTGGGTTCTAACCTGTTGCCT (site GCCGAAACTAG) | 0 |
| GCCGATACTTGGGTTCTAACCTGTTGCCT (site GCCGACACTAG) | 0.171 |
| GCCGATACTTGGGTTCTAACCTGTTGCCT (site GCCGAGACTAG) | 0.197 |
| GCCGATACTTGGGTTCTAACCTGTTGCCT (site GCCGATACTAG) | 0.113 |
| GCCGGGCCTTGGGTTCTAACCTGTTGCCT (site GCCGGGCCTAG) | 0.265 |
| GCCGGGCCTTGGGTTCTAACCTGTTGCCT (site GCTGCGCCTAG) | 0.0616 |
| GCCGGGGCTTGGGTTCTAACCTGTTGCCG (site GCCAGGGCTCG) | 0.262 |
| GCCGGGGCTTGGGTTCTAACCTGTTGCCG (site GCCCGGGCTCG) | 0.452 |
| GCCGGGGCTTGGGTTCTAACCTGTTGCCG (site GCCGGGGCTCG) | 0.186 |
| GCCGGGGCTTGGGTTCTAACCTGTTGCCG (site GCCTGGGCTCG) | 0.258 |
| GCCGTCCCTTGGGTTCTAACCTGTTGCTA (site GCCGTCCCTTA) | 0.202 |
| GCCGTCCCTTGGGTTCTAACCTGTTGCTA (site GTCGTCCCTTG) | 0.106 |
| GCCGTCTCTTGGGTTCTAACCTGTTGCCT (site GCCATCTCTAG) | 0.114 |
| GCCGTCTCTTGGGTTCTAACCTGTTGCCT (site GCCGTCTCTAG) | 0.135 |
| GCCTCGCCTTGGGTTCTAACCTGTTGCAG (site GCCACGCCTCT) | 0.341 |
| GCCTCGCCTTGGGTTCTAACCTGTTGCAG (site GCCCCGCCTCT) | 0.133 |
| GCCTCGCCTTGGGTTCTAACCTGTTGCAG (site GCCGCGCCTCT) | 0.326 |
| GCCTCGCCTTGGGTTCTAACCTGTTGCAG (site GCCTCGCCTCT) | 0.229 |

| Sequence | recombinant barcode read abundance (log10) |
| --- | --- |
| GCCTGCCCTTGGGTTCTAACCTGTTGCTG (site GCCTGCCCTCA) | 1.51 |
| GCCTGCCCTTGGGTTCTAACCTGTTGCTG (site TGGGTGACTAG) | 0.0502 |
| GCGAAGTCTTGGGTTCTAACCTGTTGCTT (site GCGAACACTAA) | 0.0375 |
| GCGAAGTCTTGGGTTCTAACCTGTTGCTT (site GCGAAGTCTAA) | 1.15 |
| GCGAATCCTTGGGTTCTAACCTGTTGCCT (site GCGAATCCTAG) | 0.845 |
| GCGAATCCTTGGGTTCTAACCTGTTGCCT (site GCGCATCCTAG) | 0.213 |
| GCGAATCCTTGGGTTCTAACCTGTTGCCT (site GCGGATCCTAG) | 0.069 |
| GCGAATCCTTGGGTTCTAACCTGTTGCCT (site GCGTATCCTAG) | 0.099 |
| GCGACTCCTTGGGTTCTAACCTGTTGCAT (site GCGACTCCTAT) | 0.857 |
| GCGACTCCTTGGGTTCTAACCTGTTGCAT (site GCGCCTCCTAT) | 0.118 |
| GCGACTCCTTGGGTTCTAACCTGTTGCAT (site GCGGCTCCTAT) | 0.14 |
| GCGACTCCTTGGGTTCTAACCTGTTGCAT (site GCGTCTCCTAT) | 0.0718 |
| GCGACTCCTTGGGTTCTAACCTGTTGCTA (site GAGACTCCTTA) | 0.739 |
| GCGACTCCTTGGGTTCTAACCTGTTGCTA (site GCGACTCCTTA) | 0.619 |
| GCGAGCTCTTGGGTTCTAACCTGTTGCCT (site GCGAGCTCTAG) | 1.6 |
| GCGAGCTCTTGGGTTCTAACCTGTTGCCT (site GCGCGTTCTAG) | 0.291 |
| GCGATGTCTTGGGTTCTAACCTGTTGCCT (site GAGATGTCTAG) | 0.183 |
| GCGATGTCTTGGGTTCTAACCTGTTGCCT (site GCGATGTCTAG) | 1.33 |
| GCGATGTCTTGGGTTCTAACCTGTTGCCT (site GGGATGTCTAG) | 0.514 |
| GCGATGTCTTGGGTTCTAACCTGTTGCCT (site GTGATGTCTAG) | 0.116 |
| GCGCGGCCTTGGGTTCTAACCTGTTGCTT (site GCACGCCCTAA) | 0.0904 |
